The values that follow come from patent publication EP1285918A1, “C7 Ester substituted taxanes as antitumor agents” (Florida State University Research Foundation, Inc., priority 2001, dated 2003).

Structures are written as SMILES.

In the experiment the test system is HCT116. As to the kind of experiment: In Vitro cytotoxicity measured by the cell colony formation assay. It is filed as cell-based. Particulars: Homo sapiens, HCT-116; 72 h drug incubation, colonies counted after 7 days; concentration producing 50% inhibition of colony formation; read-out: IN VITRO ID 50 (nm) HCT116. As for the experimental part: In Vitro cytotoxicity measured by the cell colony formation assay
Four hundred cells (HCT116) were plated in 60 mm Petri dishes containing 2.7 mL of medium (modified McCoy's 5a medium containing 10% fetal bovine serum and 100 units/mL penicillin and […] streptomycin). The cells were incubated in a CO2 incubator at 37 °C for 5 h for attachment to the bottom of Petri dishes. The compounds identified in Example 2 were made up fresh in medium at ten times the final concentration, and then 0.3 mL of this stock solution was added to the 2.7 mL of medium in the dish. The cells were then incubated with drugs for 72 h at 37 ° C. At the end of incubation the drug-containing media were decanted, the dishes were rinsed with 4 mL of Hank's Balance Salt Solution (HBSS), 5 mL of fresh medium was added, and the dishes were returned to the incubator for colony formation. The cell colonies were counted using a colony counter after incubation for 7 days. Cell survival was calculated and the values of ID50 (the drug concentration producing 50% inhibition of colony formation) were determined for each tested compound.

With `CCC(=O)O[C@H]1C[C@H]2OC[C@@]2(OC(C)=O)[C@H]2[C@H](OC(=O)c3ccccc3)[C@]3(O)C[C@H](OC(=O)[C@H](O)[C@@H](NC(=O)OC(C)(C)C)c4ccccn4)C(C)=C([C@@H](O)C(=O)[C@]12C)C3(C)C` [Compound 1364], the IC50 is < 10 nM.
On to `CCC(=O)O[C@H]1C[C@H]2OC[C@@]2(OC(C)=O)[C@H]2[C@H](OC(=O)c3ccccc3)[C@]3(O)C[C@H](OC(=O)[C@H](O)[C@@H](NC(=O)OC(C)(C)C)c4cccnc4)C(C)=C([C@@H](O)C(=O)[C@]12C)C3(C)C` [Compound 1372], for which the IC50 is 26.1 nM.
As for `CCC(=O)O[C@H]1C[C@H]2OC[C@@]2(OC(C)=O)[C@H]2[C@H](OC(=O)c3ccccc3)[C@]3(O)C[C@H](OC(=O)[C@H](O)[C@@H](NC(=O)OC(C)(C)C)c4ccncc4)C(C)=C([C@@H](O)C(=O)[C@]12C)C3(C)C` [Compound 1386], the IC50 is < 1 nM.
The figure for `CCC(=O)O[C@H]1C[C@H]2OC[C@@]2(OC(C)=O)[C@H]2[C@H](OC(=O)c3ccccc3)[C@]3(O)C[C@H](OC(=O)[C@H](O)[C@@H](NC(=O)OC(C)(C)C)C(C)C)C(C)=C([C@@H](O)C(=O)[C@]12C)C3(C)C` [Compound 1434] is < 10 nM.
The figure for `CCC(=O)O[C@H]1C[C@H]2OC[C@@]2(OC(C)=O)[C@H]2[C@H](OC(=O)c3ccccc3)[C@]3(O)C[C@H](OC(=O)[C@H](O)[C@@H](NC(=O)OC(C)(C)C)C4CCC4)C(C)=C([C@@H](O)C(=O)[C@]12C)C3(C)C` [Compound 1447] is < 10 nM; for `CCC(=O)O[C@H]1C[C@H]2OC[C@@]2(OC(C)=O)[C@H]2[C@H](OC(=O)c3ccccc3)[C@]3(O)C[C@H](OC(=O)[C@H](O)[C@@H](NC(=O)c4ccco4)c4cccs4)C(C)=C([C@@H](O)C(=O)[C@]12C)C3(C)C` [Compound 3069] it is < 1 nM; for `CCC(=O)O[C@H]1C[C@H]2OC[C@@]2(OC(C)=O)[C@H]2[C@H](OC(=O)c3ccccc3)[C@]3(O)C[C@H](OC(=O)[C@H](O)[C@@H](NC(=O)OC(C)C)c4cccs4)C(C)=C([C@@H](O)C(=O)[C@]12C)C3(C)C` [Compound 3082] it is < 1 nM.
Turning to `CCCC(=O)N[C@@H](c1ccco1)[C@@H](O)C(=O)O[C@H]1C[C@@]2(O)[C@@H](OC(=O)c3ccccc3)[C@@H]3[C@]4(OC(C)=O)CO[C@@H]4C[C@H](OC(=O)CC)[C@@]3(C)C(=O)[C@H](O)C(=C1C)C2(C)C` [Compound 3171], the IC50 is < 1 nM.
With `CCC(=O)O[C@H]1C[C@H]2OC[C@@]2(OC(C)=O)[C@H]2[C@H](OC(=O)c3ccccc3)[C@]3(O)C[C@H](OC(=O)[C@H](O)[C@@H](NC(=O)OCC(C)C)c4ccco4)C(C)=C([C@@H](O)C(=O)[C@]12C)C3(C)C` [Compound 3196] the figure was < 10 nM; with `CCC(=O)O[C@H]1C[C@H]2OC[C@@]2(OC(C)=O)[C@H]2[C@H](OC(=O)c3ccccc3)[C@]3(O)C[C@H](OC(=O)[C@H](O)[C@@H](NC(=O)OCC(C)C)c4cccs4)C(C)=C([C@@H](O)C(=O)[C@]12C)C3(C)C` [Compound 3232], < 1 nM; with `CCCC(=O)N[C@@H](c1cccs1)[C@@H](O)C(=O)O[C@H]1C[C@@]2(O)[C@@H](OC(=O)c3ccccc3)[C@@H]3[C@]4(OC(C)=O)CO[C@@H]4C[C@H](OC(=O)CC)[C@@]3(C)C(=O)[C@H](O)C(=C1C)C2(C)C` [Compound 3327], < 10 nM.
Regarding `CCC(=O)O[C@H]1C[C@H]2OC[C@@]2(OC(C)=O)[C@H]2[C@H](OC(=O)c3ccccc3)[C@]3(O)C[C@H](OC(=O)[C@H](O)[C@@H](NC(=O)c4ccccc4)c4ccsc4)C(C)=C([C@@H](O)C(=O)[C@]12C)C3(C)C` [Compound 3388], the IC50 is < 10 nM.
With `CCC(=O)O[C@H]1C[C@H]2OC[C@@]2(OC(C)=O)[C@H]2[C@H](OC(=O)c3ccccc3)[C@]3(O)C[C@H](OC(=O)[C@H](O)[C@@H](NC(=O)OC(C)C)c4ccco4)C(C)=C([C@@H](O)C(=O)[C@]12C)C3(C)C` [Compound 3444] the figure was < 1 nM; with `CCC(=O)O[C@H]1C[C@H]2OC[C@@]2(OC(C)=O)[C@H]2[C@H](OC(=O)c3ccccc3)[C@]3(O)C[C@H](OC(=O)[C@H](O)[C@@H](NC(=O)c4cccs4)c4cccs4)C(C)=C([C@@H](O)C(=O)[C@]12C)C3(C)C` [Compound 3479], < 1 nM.
With `C/C=C/C(=O)N[C@@H](c1cccs1)[C@@H](O)C(=O)O[C@H]1C[C@@]2(O)[C@@H](OC(=O)c3ccccc3)[C@@H]3[C@]4(OC(C)=O)CO[C@@H]4C[C@H](OC(=O)CC)[C@@]3(C)C(=O)[C@H](O)C(=C1C)C2(C)C` [Compound 3560], the IC50 was < 1 nM.
With `CCOC(=O)N[C@@H](c1ccco1)[C@@H](O)C(=O)O[C@H]1C[C@@]2(O)[C@@H](OC(=O)c3ccccc3)[C@@H]3[C@]4(OC(C)=O)CO[C@@H]4C[C@H](OC(=O)CC)[C@@]3(C)C(=O)[C@H](O)C(=C1C)C2(C)C` [Compound 3611] the figure was < 1 nM; with `CCC(=O)O[C@H]1C[C@H]2OC[C@@]2(OC(C)=O)[C@H]2[C@H](OC(=O)c3ccccc3)[C@]3(O)C[C@H](OC(=O)[C@H](O)[C@@H](NC(=O)c4ccco4)c4ccco4)C(C)=C([C@@H](O)C(=O)[C@]12C)C3(C)C` [Compound 3629], < 1 nM; with `CCC(=O)OC1CC2OCC2(OC(C)=O)C2C(OC(=O)c3ccccc3)C3(O)CC(OC(=O)C(O)C(NC(=O)c4cccs4)c4ccco4)C(C)=C(C(O)C(=O)C12C)C3(C)C` (centres unmarked) [Compound 3632], < 1 nM.
The figure for `CCOC(=O)NC(c1cccs1)C(O)C(=O)OC1CC2(O)C(OC(=O)c3ccccc3)C3C4(OC(C)=O)COC4CC(OC(=O)CC)C3(C)C(=O)C(O)C(=C1C)C2(C)C` (centres unmarked) [Compound 4044] is < 1 nM; for `CCC(=O)OC1CC2OCC2(OC(C)=O)C2C(OC(=O)c3ccccc3)C3(O)CC(OC(=O)C(O)C(NC(=O)c4cccnc4)c4cccs4)C(C)=C(C(O)C(=O)C12C)C3(C)C` (centres unmarked) [Compound 4106] it is < 10 nM.
For `CCCC(=O)OC1CC2OCC2(OC(C)=O)C2C(OC(=O)c3ccccc3)C3(O)CC(OC(=O)C(O)C(NC(=O)OC(C)C)c4cccs4)C(C)=C(C(O)C(=O)C12C)C3(C)C` (centres unmarked) [Compound 4135], the IC50 was < 1 nM.
Turning to `CCCC(=O)OC1CC2OCC2(OC(C)=O)C2C(OC(=O)c3ccccc3)C3(O)CC(OC(=O)C(O)C(NC(=O)c4ccccc4)c4cccs4)C(C)=C(C(O)C(=O)C12C)C3(C)C` (centres unmarked) [Compound 4175], the IC50 is < 10 nM.
The figure for `CCCC(=O)OC1CC2OCC2(OC(C)=O)C2C(OC(=O)c3ccccc3)C3(O)CC(OC(=O)C(O)C(NC(=O)c4ccco4)c4cccs4)C(C)=C(C(O)C(=O)C12C)C3(C)C` (centres unmarked) [Compound 4219] is 29 nM.
For the compound `CCCC(=O)OC1CC2OCC2(OC(C)=O)C2C(OC(=O)c3ccccc3)C3(O)CC(OC(=O)C(O)C(NC(=O)OC(C)(C)C)c4cccs4)C(C)=C(C(O)C(=O)C12C)C3(C)C` (centres unmarked) [Compound 4256], the IC50 is < 1 nM.
Regarding `CCCC(=O)OC1CC2OCC2(OC(C)=O)C2C(OC(=O)c3ccccc3)C3(O)CC(OC(=O)C(O)C(NC(=O)C=C(C)C)c4cccs4)C(C)=C(C(O)C(=O)C12C)C3(C)C` (centres unmarked) [Compound 4283], the IC50 was < 1 nM.
With `CCCC(=O)OC1CC2OCC2(OC(C)=O)C2C(OC(=O)c3ccccc3)C3(O)CC(OC(=O)C(O)C(NC(=O)OCC(C)C)c4cccs4)C(C)=C(C(O)C(=O)C12C)C3(C)C` (centres unmarked) [Compound 4290] the figure was < 10 nM; with `CCC(=O)OC1CC2OCC2(OC(C)=O)C2C(OC(=O)c3ccccc3)C3(O)CC(OC(=O)C(O)C(NC(=O)C=C(C)C)c4cccs4)C(C)=C(C(O)C(=O)C12C)C3(C)C` (centres unmarked) [Compound 4312], < 1 nM; with `CCCC(=O)OC1CC2OCC2(OC(C)=O)C2C(OC(=O)c3ccccc3)C3(O)CC(OC(=O)C(O)C(NC(=O)c4cccs4)c4cccs4)C(C)=C(C(O)C(=O)C12C)C3(C)C` (centres unmarked) [Compound 4388], < 1 nM.
The figure for `CCCC(=O)OC1CC2OCC2(OC(C)=O)C2C(OC(=O)c3ccccc3)C3(O)CC(OC(=O)C(O)C(NC(=O)OC(C)(C)C)c4ccoc4)C(C)=C(C(O)C(=O)C12C)C3(C)C` (centres unmarked) [Compound 4394] is < 1 nM.
Turning to `CCCC(=O)OC1CC2OCC2(OC(C)=O)C2C(OC(=O)c3ccccc3)C3(O)CC(OC(=O)C(O)C(C=C(C)C)NC(=O)OC(C)(C)C)C(C)=C(C(O)C(=O)C12C)C3(C)C` (centres unmarked) [Compound 4406], the IC50 was < 1 nM.
The figure for `CCCC(=O)O[C@H]1C[C@H]2OC[C@@]2(OC(C)=O)[C@H]2[C@H](OC(=O)c3ccccc3)[C@]3(O)C[C@H](OC(=O)[C@H](O)[C@@H](NC(=O)c4ccccc4)c4cccs4)C(C)=C([C@@H](O)C(=O)[C@]12C)C3(C)C` [Compound 4414] is < 1 nM.
The figure for `CCCC(=O)OC1CC2OCC2(OC(C)=O)C2C(OC(=O)c3ccccc3)C3(O)CC(OC(=O)C(O)C(NC(=O)OC(C)(C)C)c4ccsc4)C(C)=C(C(O)C(=O)C12C)C3(C)C` (centres unmarked) [Compound 4446] is < 1 nM; for `CCCC(=O)O[C@H]1C[C@H]2OC[C@@]2(OC(C)=O)[C@H]2[C@H](OC(=O)c3ccccc3)[C@]3(O)C[C@H](OC(=O)[C@H](O)[C@@H](NC(=O)c4cccs4)c4cccs4)C(C)=C([C@@H](O)C(=O)[C@]12C)C3(C)C` [Compound 4454] it is < 1 nM.
In the case of `CCCC(=O)OC1CC2OCC2(OC(C)=O)C2C(OC(=O)c3ccccc3)C3(O)CC(OC(=O)C(O)C(NC(=O)OC(C)(C)C)c4ccco4)C(C)=C(C(O)C(=O)C12C)C3(C)C` (centres unmarked) [Compound 4499], the IC50 is < 1 nM.
Regarding `CCC(=O)OC1CC2OCC2(OC(C)=O)C2C(OC(=O)c3ccccc3)C3(O)CC(OC(=O)C(O)C(NC(=O)OCC(C)C)c4ccsc4)C(C)=C(C(O)C(=O)C12C)C3(C)C` (centres unmarked) [Compound 4544], the IC50 was < 10 nM.
